In patent US10745382B2 (BRISTOL-MYERS SQUIBB COMPANY, priority 2015, dated 2020):
Like-named read-outs stand apart in the source and are kept apart here.

Target: T1, PD-1/PD-L1 (Homo sapiens, UniProt Q9NZQ7)
T1 construct: made in house; host or cells: HEK293T
Assay: PD-1/PD-L1 Homogenous Time-Resolved Fluorescence (HTRF) binding assay
Conditions: PD-L1-His 10 nM, PD-1-Ig 20 nM, read-out: Range or IC50
Outline: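 Additional pairs run were PD-1-Ig with PD-L2-His (20 & 5 nM) and CD80-His with PD-L1-Ig (100 & 10 nM), all human proteins. Buffer: dPBS plus 0.1% BSA, 0.05% Tween-20; time-resolved FRET read-out via 1 nM Eu-cryptate anti-Ig and 20 nM APC anti-His, final concentrations.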

T1 sequence (Q9NZQ7 with tags, fused parts or gaps): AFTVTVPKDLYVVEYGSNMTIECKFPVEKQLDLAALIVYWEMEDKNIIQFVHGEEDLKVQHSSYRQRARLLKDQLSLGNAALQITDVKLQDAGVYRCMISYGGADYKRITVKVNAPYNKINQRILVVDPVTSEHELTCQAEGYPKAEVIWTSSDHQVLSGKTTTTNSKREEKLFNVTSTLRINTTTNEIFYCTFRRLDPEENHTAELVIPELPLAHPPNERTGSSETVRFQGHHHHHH

SMILES	IC50 (value given as range class) [nM]	IC50 (numeric IC50) [nM]
Cc1c(COc2cc(OCc3cncc(C#N)c3)c(CN[C@@](C)(CO)C(=O)O)cc2Cl)cccc1-c1cc(OCCCN2CC[C@@H](O)C2)cc(OCCCN2CC[C@@H](O)C2)c1 [Example 3064, (S)-2-((4-((3′,5′-bis(3-((R)-3-hydroxypyrrolidin-1-yl)propoxy)-2-methyl-[1,1′-biphenyl]-3-yl)methoxy)-5-chloro-2-((5-cyanopyridin-3-yl)methoxy)benzyl)amino)-3-hydroxy-2-methylpropanoic Acid]	2010 to 10000	–
Cc1c(COc2cc(OCc3cncc(C#N)c3)c(CO)cc2Cl)cccc1-c1cccc(OCCCNC(CO)(CO)CO)c1Cl [Example 2041, 5-((4-chloro-5-((2′-chloro-3′-(3-((1,3-dihydroxy-2-(hydroxymethyl)propan-2-yl)amino)propoxy)-2-methyl-[1,1′-biphenyl]-3-yl)methoxy)-2-(hydroxymethyl)phenoxy)methyl)nicotinonitrile]	10 to 100	–
Cc1c(COc2cc(OCc3cncc(C#N)c3)c(CN[C@@](C)(CO)C(=O)O)cc2Cl)cccc1-c1cccc(OCCCN2CCC(O)C2)c1C(F)(F)F (stereo in doubt) [Example 3011, (S)-2-((5-chloro-2-((5-cyanopyridin-3-yl)methoxy)-4-((3′-(3-((R)-3-hydroxypyrrolidin-1-yl)propoxy)-2-methyl-2′-(trifluoromethyl)-[1,1′-biphenyl]-3-yl)methoxy)benzyl)amino)-3-hydroxy-2-methylpropanoic Acid]	–	9
Cc1c(COc2cc(OCc3cncc(C#N)c3)c(CN[C@](C)(CO)C(=O)O)cc2Cl)cccc1-c1cccc(OCCCN2CCC[C@H](C(=O)O)C2)c1Cl [Example 2008, (S)-1-(3-((3′-((4-((((R)-2-carboxy-1-hydroxypropan-2-yl)amino)methyl)-2-chloro-5-((5-cyanopyridin-3-yl)methoxy)phenoxy)methyl)-2-chloro-2′-methyl-[1,1′-biphenyl]-3-yl)oxy)propyl)piperidine-3-carboxylic Acid]	0.21 to 10	–
CCOC(=O)C1(CO)CCN(CCCOc2cccc(-c3cccc(COc4cc(OCc5cncc(S(C)(=O)=O)c5)c(CN[C@](C)(CO)C(=O)O)cc4Cl)c3C)c2C)C1 (stereo partly drawn) [Example 1044, (2R)-2-((5-chloro-4-((3′-(3-(3-(ethoxycarbonyl)-3-(hydroxymethyl)pyrrolidin-1-yl)propoxy)-2,2′-dimethyl-[1,1′-biphenyl]-3-yl)methoxy)-2-((5-(methylsulfonyl)pyridin-3-yl)methoxy)benzyl)amino)-3-hydroxy-2-methylpropanoic Acid]	0.21 to 10	–
Cc1c(COc2cc(OCc3cncc(C(N)=O)c3)c(CN[C@@](C)(CO)C(=O)O)cc2Cl)cccc1-c1cccc(OCCCN2CCC(O)(CC(=O)O)C2)c1Cl (stereo partly drawn) [Example 1518, (2S)-2-((2-((5-carbamoylpyridin-3-yl)methoxy)-4-((3′-(3-(3-(carboxymethyl)-3-hydroxypyrrolidin-1-yl)propoxy)-2′-chloro-2-methyl-[1,1′-biphenyl]-3-yl)methoxy)-5-chlorobenzyl)amino)-3-hydroxy-2-methylpropanoic acid]	10 to 100	–
CCN(CC)C(=O)c1cccc(-c2cccc(COc3cc(OCc4cncc(C#N)c4)c(CN4C[C@H](O)C[C@H]4C(=O)O)cc3Cl)c2C)c1C [Example 4042, (2S,4R)-1-(5-chloro-2-((5-cyanopyridin-3-yl)methoxy)-4-((3′-(diethylcarbamoyl)-2,2′-dimethyl-[1,1′-biphenyl]-3-yl)methoxy)benzyl)-4-hydroxypyrrolidine-2-carboxylic Acid]	100 to 2000	–
COc1cc(/C=C/c2cccc(-c3cccc(OCCCN4CC[C@@H](O)C4)c3C)c2C)c(Cl)cc1CN1CCCC[C@H]1C(=O)O [Example 4517, (S)-1-(5-chloro-4-((E)-2-(3′-(3-((R)-3-hydroxypyrrolidin-1-yl)propoxy)-2,2′-dimethyl-[1,1′-biphenyl]-3-yl)vinyl)-2-methoxybenzyl)piperidine-2-carboxylic Acid]	0.21 to 10	–
COC(=O)C1CN(CCCOc2cccc(-c3cccc(COc4cc(OCc5cncc(S(C)(=O)=O)c5)c(CN5CCCC[C@H]5C(=O)O)cc4Cl)c3C)c2C)CC1O (stereo partly drawn) [Example 1072, (2S)-1-(5-chloro-4-((3′-(3-(3-hydroxy-4-(methoxycarbonyl)pyrrolidin-1-yl)propoxy)-2,2′-dimethyl-[1,1′-biphenyl]-3-yl)methoxy)-2-((5-(methylsulfonyl)pyridin-3-yl)methoxy)benzyl)piperidine-2-carboxylic Acid]	0.21 to 10	–
Cc1c(COc2cc(OCc3cncc(C#N)c3)c(CN3CCCC[C@H]3C(=O)O)cc2Cl)cccc1-c1cccc(OCCCNCC(O)CO)c1C (stereo partly drawn) [Example 2235, (2S)-1-(5-chloro-2-((5-cyanopyridin-3-yl)methoxy)-4-((3′-(3-(2,3-dihydroxypropylamino)propoxy)-2,2′-dimethylbiphenyl-3-yl)methoxy)benzyl)piperidine-2-carboxylic Acid]	0.21 to 10	–

The remaining lines, values ahead:

IC50 (value given as range class) [nM]	IC50 (numeric IC50) [nM]	SMILES
0.21 to 10	–	Cc1c(COc2cc(OCc3cncc(C#N)c3)c(CN3CCCC(CO)C3)cc2Cl)cccc1-c1cccc(OCCCN2CCCC(CO)C2)c1C (stereo not drawn) [Example 2255, 5-((4-chloro-2-((3-(hydroxymethyl)piperidin-1-yl)methyl)-5-((3′-(3-(3-(hydroxymethyl)piperidin-1-yl)propoxy)-2,2′-dimethylbiphenyl-3-yl)methoxy)phenoxy)methyl)nicotinonitrile]
0.21 to 10	–	COc1cc(OCc2cccc(-c3cccc(OCCCN4CC[C@@H](O)C4)c3C)c2C)c(Cl)cc1CN[C@@](C)(CO)C(=O)O [Example 3033, (2S)-2-((5-chloro-4-((3′-(3-((R)-3-hydroxypyrrolidin-1-yl)propoxy)-2,2′-dimethyl-[1,1′-biphenyl]-3-yl)methoxy)-2-methoxybenzyl)amino)-3-hydroxy-2-methylpropanoic Acid]
10 to 100	–	CNC(=O)c1cccc(-c2cccc(COc3cc(OCc4cncc(C#N)c4)c(CN4C[C@H](O)C[C@H]4C(=O)O)cc3Cl)c2C)c1C [Example 4013, (2S,4R)-1-(5-chloro-2-((5-cyanopyridin-3-yl)methoxy)-4-((2,2′-dimethyl-3′-(methylcarbamoyl)-[1,1′-biphenyl]-3-yl)methoxy)benzyl)-4-hydroxypyrrolidine-2-carboxylic Acid]
0.21 to 10	–	CCOC(=O)[C@H](CO)NCc1cc(Cl)c(OCc2cccc(-c3cccc(OCCCN4CC[C@@H](O)C4)c3C)c2C)cc1OCc1cncc(C#N)c1 [Example 3066, (S)-ethyl 2-((5-chloro-2-((5-cyanopyridin-3-yl)methoxy)-4-((3′-(3-((R)-3-hydroxypyrrolidin-1-yl)propoxy)-2,2′-dimethyl-[1,1′-biphenyl]-3-yl)methoxy)benzyl)amino)-3-hydroxypropanoate]
0.21 to 10	–	Cc1c(COc2cc(OCc3cncc(C#N)c3)c(CNC(CO)CO)cc2Cl)cccc1-c1cccc(OCCCN2CCC[C@H](CO)C2)c1C [Example 2296, (S)-5-((4-chloro-2-(((1,3-dihydroxypropan-2-yl)amino)methyl)-5-((3′-(3-(3-(hydroxymethyl)piperidin-1-yl)propoxy)-2,2′-dimethyl-[1,12′-biphenyl]-3-yl)methoxy)phenoxy)methyl)nicotinonitrile]
